The structures appear in SMILES notation. pEC50: −log10 of the molar value. Counter-ions that a name gives are not always drawn.

For the test, the target named is T1, PARP (Mus musculus, UniProt P11103).
T1 construct: PARP Activity in Cultured Macrophages, Using a Whole-Cell Based Assay; host or cells: murine RAW macrophages
T1 sequence (P11103 whole entry): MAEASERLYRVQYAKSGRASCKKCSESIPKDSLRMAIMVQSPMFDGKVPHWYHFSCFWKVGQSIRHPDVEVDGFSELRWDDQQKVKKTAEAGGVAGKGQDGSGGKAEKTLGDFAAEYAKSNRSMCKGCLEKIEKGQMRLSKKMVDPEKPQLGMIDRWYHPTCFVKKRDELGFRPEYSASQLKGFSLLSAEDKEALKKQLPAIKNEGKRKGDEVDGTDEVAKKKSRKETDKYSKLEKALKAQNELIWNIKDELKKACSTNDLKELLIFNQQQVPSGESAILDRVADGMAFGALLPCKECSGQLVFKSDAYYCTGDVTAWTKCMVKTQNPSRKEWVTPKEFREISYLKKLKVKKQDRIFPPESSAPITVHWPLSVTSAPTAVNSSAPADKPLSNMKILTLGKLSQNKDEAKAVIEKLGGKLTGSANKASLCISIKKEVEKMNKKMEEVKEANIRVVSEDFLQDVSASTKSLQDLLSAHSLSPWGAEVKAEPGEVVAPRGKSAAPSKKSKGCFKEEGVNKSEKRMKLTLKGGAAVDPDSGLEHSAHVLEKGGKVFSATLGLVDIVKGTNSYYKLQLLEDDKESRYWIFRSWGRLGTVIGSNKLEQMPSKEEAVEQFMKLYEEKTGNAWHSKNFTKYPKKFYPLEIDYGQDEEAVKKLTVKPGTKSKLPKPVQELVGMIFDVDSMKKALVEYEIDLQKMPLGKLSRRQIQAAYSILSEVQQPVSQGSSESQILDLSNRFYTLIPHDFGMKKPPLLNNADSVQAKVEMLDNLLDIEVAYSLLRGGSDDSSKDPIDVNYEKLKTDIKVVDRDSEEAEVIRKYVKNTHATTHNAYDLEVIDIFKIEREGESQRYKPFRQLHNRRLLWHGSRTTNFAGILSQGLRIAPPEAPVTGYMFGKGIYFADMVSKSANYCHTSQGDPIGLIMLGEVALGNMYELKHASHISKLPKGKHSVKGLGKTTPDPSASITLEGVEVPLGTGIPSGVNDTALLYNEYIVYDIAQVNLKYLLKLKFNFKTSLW
Description: PARP activity in cultured macrophages, whole-cell based assay (3H-NAD+ incorporation after hydrogen peroxide). Particulars: murine RAW macrophages; compound 1 hour prior to hydrogen peroxide (0.5 mM) for 25 minutes; PARP activity by 3H-NAD+. How it is done:
Effect of Indenoisoquinolinone Analogs on PARP Activity in Cultured Macrophages, Using a Whole-Cell Based Assay
The murine RAW macrophages (ATCC, American Type Culture Collection, Manassas, Va.) were grown in RPMI […] (Invitrogen Life Technologies; Carlsbad, Calif.) medium supplemented with 10% heat-inactivated FBS, 2 mM L-glutamine, and 100 U/ml of penicillin and streptomycin. Cells, between passages 5 and 15, were seeded at a density of 250,000 cells/well in 12 well plates and allowed to grow 48 hours before use. Growth medium was changed on the day of use. Cells were treated with an Indenoisoquinolinone Analog diluted in a growth medium supplemented with 10% fetal bovine serum (FBS) for 1 hour prior to the addition of hydrogen peroxide (0.5 mM) for a further 25 minutes. For the measurement of PARP activity, media was removed and replaced with 0.5 ml of the assay buffer (56 mM HEPES-pH 7.5, 28 mM KCl, 28 mM NaCl, 2 mM MgCl2, 0.01% digitonin, and 0.5 μCi/m1 of ^3H-NAD^+) for 20 minutes. After aspirating the assay buffer, cells were lysed and transferred to eppendorf tubes containing 250 μl of 50% ice-cold trichloroacetic acid (TCA), which were then placed at 4° C. for 4 hours. Samples were centrifuged at 10,000 g for 10 minutes and supernatant removed. The pellets were washed twice with 500 μl of ice-cold 5% w/v TCA. The pellets were then solubilized in 250 μl of NaOH (0.1 M) containing 2% SDS overnight at 37° C. and the PARP activity was then determined by measuring the radioactivity incorporated using a Wallac scintillation counter. The solubilized protein (250 μl) was mixed with 5 ml of scintillation fluid (ScintiSafe Plus, Fisher Scientific) before being counted for 3 minutes. EC50 values were determined from a dose-response curve.
The term pEC50 denotes the EC50 on a negative log10 scale, so that one unit is a factor of ten. The low end stands for a high EC50, the high end for a low EC50. As for `O=c1[nH]c2c(c3ccccc13)Cc1cc(CN3CCN(CC4CC4)CC3)ccc1-2` [Dihydrochloride salt of IIIb-3, 9-[1-(4-Cyclopropylmethylpiperazino)methyl]-5,6-dihydro-5-oxo-11-H-indeno[1,2-c]isoquinoline dihydrochloride], the pEC50 was 8.00.
Take `O=c1[nH]c2c(c3ccccc13)Cc1cc(CN3CCN(C4CCCCC4)CC3)ccc1-2` [Dihydrochloride salt of IIIb-14, 9-[1-(4-Cyclohexylpiperazino)methyl]-5,6-dihydro-5-oxo-11-H-indeno[1,2-c]isoquinoline dihydrochloride]: the pEC50 is 7.70.
Under `CC(C)N1CCN(Cc2cccc3c2Cc2c-3[nH]c(=O)c3ccccc23)CC1` [IIIa-1, 10-[1-(4-iso-Propylpiperazino)methyl]-5,6-dihydro-5-oxo-11-H-indeno[1,2-c]isoquinoline] stands 7.35; under `CCCCN1CCN(Cc2cccc3c2Cc2c-3[nH]c(=O)c3ccccc23)CC1` [IIIa-2, 10-[1-(4-Butylpiperazino)methyl]-5,6-dihydro-5-oxo-11-H-indeno[1,2-c]isoquinoline], 7.60; under `O=c1[nH]c2c(c3ccccc13)Cc1c(CN3CCN(CC4CC4)CC3)cccc1-2` [IIIa-3, 10-[1-(4-Cyclopropylmethylpiperazino)methyl]-5,6-dihydro-5-oxo-11-H-indeno[1,2-c]isoquinoline], 7.70.
In turn, `O=c1[nH]c2c(c3ccccc13)Cc1c(CNCCCO)cccc1-2` [IIIa-4, 10-[N-1-(3-Hydroxypropyl)aminomethyl]-5,6-dihydro-5-oxo-11-H-indeno[1,2-c]isoquinoline] gave a pEC50 of 7.82.
In turn, `O=c1[nH]c2c(c3ccccc13)Cc1c(CNCCN3CCCC3)cccc1-2` [IIIa-5, 10-[N-(2-Pyrollidinoethyl)aminomethyl}-5,6-dihydro-5-oxo-11-H-indeno[1,2-c]isoquinoline] had a pEC50 of 7.40.
For `O=c1[nH]c2c(c3ccccc13)Cc1c(CN3CCN(c4ncccn4)CC3)cccc1-2` [IIIa-8, 10-{1-[4-(2-Pyrimidyl)piperazino]methyl}-5,6-dihydro-5-oxo-11-H-indeno[1,2-c]isoquinoline], the pEC50 was 7.12.
On to `O=c1[nH]c2c(c3ccccc13)Cc1c(CN3CC[C@H](F)C3)cccc1-2` [IIIa-11, 10-[S-(3-Fluoropyrrolidino)methyl]-5,6-dihydro-5-oxo-11-H-indeno[1,2-c]isoquinoline], for which the pEC50 is 7.92.
In turn, `O=c1[nH]c2c(c3ccccc13)Cc1c(CN3CC=CCC3)cccc1-2` [IIIa-12, 10-[(3,4-Dehydropiperidino)methyl]-5,6-dihydro-5-oxo-11-H-indeno[1,2-c]isoquinoline] showed a pEC50 of 8.15.
The compound `CC(C)N1CCN(Cc2ccc3c(c2)Cc2c-3[nH]c(=O)c3ccccc23)CC1` [IIIb-1, 9-[1-(4-iso-Propylpiperazino)methyl]-5,6-dihydro-5-oxo-11-H-indeno[1,2-c]isoquinoline] gave a pEC50 of 7.70.
Compound `CCCCN1CCN(Cc2ccc3c(c2)Cc2c-3[nH]c(=O)c3ccccc23)CC1` [IIIb-2, 9-[1-(4-Butylpiperazino)methyl]-5,6-dihydro-5-oxo-11-H-indeno[1,2-c]isoquinoline] gave a pEC50 of 7.60.
Regarding `O=c1[nH]c2c(c3ccccc13)Cc1cc(CN3CCN(c4ncccn4)CC3)ccc1-2` [IIIb-8, 9-{1-[4-(2-Pyrimidyl)piperazino]methyl}-5,6-dihydro-5-oxo-11-H-indeno[1,2-c]isoquinoline], the pEC50 was 7.12.
`O=c1[nH]c2c(c3ccccc13)Cc1cc(CN3CCN(C4CCCC4)CC3)ccc1-2` [IIIb-9, 9-[1-(4-Cyclopentylpiperazino)methyl]-5,6-dihydro-5-oxo-11-H-indeno[1,2-c]isoquinoline dihydrochloride] had a pEC50 of 7.70.
`CCOCCN1CCN(Cc2ccc3c(c2)Cc2c-3[nH]c(=O)c3ccccc23)CC1` [IIIb-10, 9-{1-[4-(2-Ethoxyethyl)piperazino]methyl}-5,6-dihydro-5-oxo-11-H-indeno[1,2-c]isoquinoline] showed a pEC50 of 7.12.
Take `CN1CCCN(Cc2ccc3c(c2)Cc2c-3[nH]c(=O)c3ccccc23)CC1` [IIIb-13, 9-[1-(4-Methylhomopiperazino)methyl]-5,6-dihydro-5-oxo-11-H-indeno[1,2-c]isoquinoline]: the pEC50 was 7.60.
As to `CC(C)(C)OC(=O)N1CCN(Cc2ccc3c(c2)Cc2c-3[nH]c(=O)c3ccccc23)CC1` [IIIb-16, 9-[(4-tert-Butoxycarbonyl-piperazino)methyl]-5,6-dihydro-5-oxo-11-H-indeno[1,2-c]isoquinoline], the pEC50 is less than 7.00.
In turn, `CC(C)(O)CN1CCN(Cc2ccc3c(c2)Cc2c-3[nH]c(=O)c3ccccc23)CC1` [IIIb-18, 9-[4-(2-Hydroxy-2-methyl-propyl-piperazino)methyl]-5,6-dihydro-5-oxo-11-H-indeno[1,2-c]isoquinoline dihydrochloride] showed a pEC50 of 7.12.
The same measure for `CN(CCN1CCOCC1)Cc1ccc2c(c1)Cc1c-2[nH]c(=O)c2ccccc12` [IIIb-19]: 7.52; for `O=c1[nH]c2c(c3ccccc13)Cc1cc(CN3CCCCCC3)ccc1-2` [IIIb-22, 9-(1-Homopiperidinomethyl)-5,6-dihydro-5-oxo-11-H-indeno[1,2-c]isoquinoline]: less than 7.00.
The same measure for `C[C@@H]1CN(Cc2ccc3c(c2)Cc2c-3[nH]c(=O)c3ccccc23)C[C@H](C)N1` [IIIb-24, 9-[1-(3,5-Dimethylpiperazino)methyl]-5,6-dihydro-5-oxo-11-H-indeno[1,2-c]isoquinoline]: less than 7.22; for `C=CCN1CCN(Cc2cccc3c2Cc2c-3[nH]c(=O)c3ccccc23)CC1` [IIa-1, 10-[1-(4-Allylpiperazino)methyl]-5,6-dihydro-5-oxo-11-H-indeno[1,2-c]isoquinoline]: 7.70; for `O=c1[nH]c2c(c3ccccc13)Cc1c(CN3CCC4(CC3)OCCO4)cccc1-2` [IIa-14, 10-[(4,4-Ethylenedioxy-piperidino)methyl]-5,6-dihydro-5-oxo-11-H-indeno[1,2-c]isoquinoline]: 7.52.
In the case of `O=c1[nH]c2c(c3ccccc13)Cc1c(CNC3(CO)CCCC3)cccc1-2` [IIa-27, 10-{N-[1-(Hydroxymethyl)cyclopentyl]aminomethyl}-5,6-dihydro-5-oxo-11-H-indeno[1,2-c]isoquinoline], the pEC50 is more than 8.00.
As for `C=CCN1CCN(Cc2ccc3c(c2)Cc2c-3[nH]c(=O)c3ccccc23)CC1` [IIb-1, 9-[1-(4-Allylpiperazino)methyl]-5,6-dihydro-5-oxo-11-H-indeno[1,2-c]isoquinoline], the pEC50 is 7.35.
On to `CCC(C)n1c2cc(CN3CCC4(CC3)OCCO4)ccc2c2[nH]c(=O)c3ccccc3c21` (stereo not drawn) [IIb-23], for which the pEC50 is 7.10.
Take `N#CCCN1CCN(Cc2ccc3c(c2)Cc2c-3[nH]c(=O)c3ccccc23)CC1` [IIb-66, 9-{1-[4-(2-Cyanoethyl)piperazino]methyl}-5,6-dihydro-5-oxo-11-H-indeno[1,2-c]isoquinoline]: the pEC50 was 7.35.
The compound `CC(C)(C)OC(=O)N1CCC(N(Cc2ccc3c(c2)Cc2c-3[nH]c(=O)c3ccccc23)C2CC2)CC1` [IIb-79, 9-{N-[4-(1-Boc-piperidyl)]-N-cyclopropylaminomethyl}-5,6-dihydro-5-oxo-11-H-indeno[1,2-c]isoquinoline] had a pEC50 of less than 7.22.
The same measure for `CC(C)(C)OC(=O)N1CCC(NCc2ccc3c(c2)Cc2c-3[nH]c(=O)c3ccccc23)CC1` [IIb-92, 9-{N-[4-(1-Boc-piperidyl)]aminomethyl}-5,6-dihydro-5-oxo-11-H-indeno[1,2-c]isoquinoline]: less than 7.22; for `CCC(=O)N1CCCN(Cc2ccc3c(c2)Cc2c-3[nH]c(=O)c3ccccc23)CC1` [IIb-118, 9-[(4-Propionyl-homopiperazino)methyl]-5,6-dihydro-5-oxo-11-H-indeno[1,2-c]isoquinoline hydrochloride]: 7.22; for `O=C(CN1CCN(Cc2ccc3c(c2)Cc2c-3[nH]c(=O)c3ccccc23)CC1)N1CCCC1` [IIb-157, 9-{1-[4-(1-Pyrrolidinocarbonylmethyl)piperazino]methyl}-5,6-dihydro-5-oxo-11-H-indeno[1,2-c] isoquinoline]: 7.12.
For the compound `O=C(C1CC1)N1CCN(Cc2ccc3c(c2)Cc2c-3[nH]c(=O)c3ccccc23)CC1` [IIb-170, 9-{1-[4-(Cyclopropylcarbonyl)piperazino]methyl}-5,6-dihydro-5-oxo-11-H-indeno[1,2-c]isoquinoline], the pEC50 is 7.12.
Turning to `CCOC(CN1CCN(Cc2ccc3c(c2)Cc2c-3[nH]c(=O)c3ccccc23)CC1)OCC` [IIb-196, 9-{1-[4-(2,2-Diethoxyethyl)piperazino]methyl}-5,6-dihydro-5-oxo-11-H-indeno[1,2-c]isoquinoline], the pEC50 was 7.12.
